According to patent US10611740B2, “Aryl dihydro-2H-benzo[b][1,4]oxazine sulfonamide and related compounds for use as agonists of RORγ and the treatment of disease” (Lycera Corporation, priority 2015, dated 2020):

Tests used:
RORγ-LBD = molecular target: T1, RORγ-LBD (Homo sapiens, UniProt P51449); experiment: RORγ-Ligand Binding Domain (LBD) TR-FRET Assay; format: biochemical;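 for TR-FRET Assay Max Response: 665/615 nm ratio relative to signal without ursolic acid or compound set at 100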
T1 construct: made in house; host or cells: SF9 cells (baculovirus)
T1 sequence (P51449 269-508 limits assumed): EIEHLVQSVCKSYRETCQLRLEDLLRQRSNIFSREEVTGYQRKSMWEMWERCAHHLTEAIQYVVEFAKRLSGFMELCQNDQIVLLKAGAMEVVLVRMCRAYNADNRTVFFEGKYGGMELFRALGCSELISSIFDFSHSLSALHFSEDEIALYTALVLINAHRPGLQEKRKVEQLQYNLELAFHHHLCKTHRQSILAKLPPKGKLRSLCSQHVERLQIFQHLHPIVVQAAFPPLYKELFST
In short: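 His-tagged RORγ-LBD from SF9 baculovirus lysate, ~3 nM final, in 50 mM Tris pH 7.0, 50 mM KCl, 1 mM EDTA, 0.1 mM DTT, 0.01% BSA. Biotinylated SRC1 LXXLL peptide at 200 nM final with 2 μM ursolic acid; TR-FRET read-out, 1% DMSO final.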

Gal4-RORγ-LBD = molecular target: T2, Gal4-RORγ-LBD (Homo sapiens, UniProt P51449); experiment: Gal4-RORγ Luciferase Reporter Assay in HEK-293T Cells; format: cell-based; details: HEK-293 cells
T2 construct: expressed in transfected cells; host or cells: HEK-293 cells (pcDNA3.1neo plasmid)
T2 sequence (P51449 269-508 limits assumed): T1 sequence (P51449 269-508 limits assumed)
In short: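 HEK-293 cells were transiently co-transfected with Gal4-RORγ-LBD and pGL4.31 Gal4-luciferase, with ursolic acid added at 2 μM final. Compounds were incubated overnight at 37° C. in 0.2% DMSO and luminescence read with One-Glo. Max Response is the upper plateau of a 4-parameter logistic fit, with signal lacking ursolic acid or compound set to 100.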

[1] = luciferase reporter, with 2 μM ursolic acid

| Compound | EC50 (RORγ-LBD) [nM] | TR-FRET Assay Max Response (RORγ-LBD) | EC50 (Gal4-RORγ-LBD; [1]) [nM] | Gal4-RORγ Assay Max Response (Gal4-RORγ-LBD; [1]) | EC50 (Gal4-RORγ-LBD; 2 μM ursolic acid) [nM] | Gal4-RORγ Assay Max Response (Gal4-RORγ-LBD; 2 μM ursolic acid) |
| --- | --- | --- | --- | --- | --- | --- |
| CC(C)(O)C(=O)NCC[C@H]1CN(S(=O)(=O)c2cccc(C(F)(F)F)c2)c2cc(-c3cccc(C(F)(F)F)n3)ccc2O1 [Compound 30B, (S)-2-hydroxy-2-methyl-N-(2-(4-((3-(trifluoromethyl)phenyl)-sulfonyl)-6-(6-(trifluoromethyl)-pyridin-2-yl)-3,4-dihydro-2H-benzo[b][1,4]oxazin-2-yl)ethyl)propanamide] | < 500 | **** (The symbol “****” indicates a value greater than 200) | < 500 | ** (The symbol “**” indicates a value in the range of greater than 90 to 150) | – | – |
| O=C(CO)NC[C@H]1CN(S(=O)(=O)c2cccc(C(F)(F)F)c2)c2cc(-c3cc(F)ccc3F)ccc2O1 [Compound 30BA, (S)-N-((6-(2,5-difluorophenyl)-4-((3-(trifluoromethyl)phenyl)-sulfonyl)-3,4-dihydro-2H-benzo[b][1,4]oxazin-2-yl)methyl)-2-hydroxyacetamide] | < 500 | *** (The symbol “***” indicates a value in the range of greater than 150 to 200) | < 500 | ** (The symbol “**” indicates a value in the range of greater than 90 to 150) | – | – |
| O=C(NC[C@H]1CN(S(=O)(=O)c2cccc(C(F)(F)F)c2)c2cc(-c3cc(F)ccc3F)ccc2O1)C1CCC1 [Compound 30BB, (S)-N-((6-(2,5-difluorophenyl)-4-((3-(trifluoromethyl)phenyl)-sulfonyl)-3,4-dihydro-2H-benzo-[b][1,4]oxazin-2-yl)methyl)-cyclobutanecarboxamide] | < 500 | *** (The symbol “***” indicates a value in the range of greater than 150 to 200) | < 500 | * (The symbol “*” indicates a value in the range of 25 to 90) | – | – |
| CN(C)c1cccc(-c2ccc3c(c2)N(S(=O)(=O)c2cccc(C(F)(F)F)c2)C[C@H](CNC(=O)C2CC2)O3)n1 [Compound 30BC, (S)-N-((6-(6-(dimethylamino)-pyridin-2-yl)-4-((3-(trifluoro-methyl)phenyl)sulfonyl)-3,4-dihydro-2H-benzo[b][1,4]-oxazin-2-yl)methyl)cyclo-propanecarboxamide] | < 500 | *** (The symbol “***” indicates a value in the range of greater than 150 to 200) | < 500 | ** (The symbol “**” indicates a value in the range of greater than 90 to 150) | – | – |
| CC(=O)NC[C@H]1CN(S(=O)(=O)c2cccc(C(F)(F)F)c2)c2cc(-c3cc(F)ccc3F)ccc2O1 [Compound 30BD, (S)-N-((6-(2,5-difluorophenyl)-4-((3-(trifluoromethyl)phenyl)-sulfonyl)-3,4-dihydro-2H-benzo[b][1,4]oxazin-2-yl)methyl)acetamide] | < 500 | **** (The symbol “****” indicates a value greater than 200) | < 500 | ** (The symbol “**” indicates a value in the range of greater than 90 to 150) | – | – |
| CC(C)(F)C(=O)NC[C@H]1CN(S(=O)(=O)c2cccc(C(F)(F)F)c2)c2cc(-c3cc(F)ccc3F)ccc2O1 [Compound 30BE, (S)-N-((6-(2,5-difluorophenyl)-4-((3-(trifluoromethyl)phenyl)-sulfonyl)-3,4-dihydro-2H-benzo[b][1,4]oxazin-2-yl)methyl)-2-fluoro-2-methylpropanamide] | < 500 | *** (The symbol “***” indicates a value in the range of greater than 150 to 200) | < 500 | * (The symbol “*” indicates a value in the range of 25 to 90) | – | – |
| COc1cc(F)cc(-c2ccc3c(c2)N(S(=O)(=O)c2cccc(C(F)(F)F)c2)C[C@H](CNC(=O)[C@@](C)(O)C(F)(F)F)O3)c1F [Compound 30BF, (R)-N-(((S)-6-(2,5-difluoro-3-methoxyphenyl)-4-((3-(trifluoro-methyl)phenyl)sulfonyl)-3,4-dihydro-2H-benzo[b][1,4]-oxazin-2-yl)methyl)-3,3,3-trifluoro-2-hydroxy-2-methylpropanamide] | < 500 | **** (The symbol “****” indicates a value greater than 200) | < 500 | * (The symbol “*” indicates a value in the range of 25 to 90) | – | – |
| NS(=O)(=O)CCC(=O)NC[C@H]1CN(S(=O)(=O)c2cccc(C(F)(F)F)c2)c2cc(-c3cccc(C(F)(F)F)n3)ccc2O1 [Compound 30BG, (S)-3-sulfamoyl-N-((4-((3-(trifluoromethyl)phenyl)-sulfonyl)-6-(6-(trifluoro-methyl)pyridin-2-yl)-3,4-dihydro-2H-benzo[b][1,4]-oxazin-2-yl)methyl)-propanamide] | < 500 | *** (The symbol “***” indicates a value in the range of greater than 150 to 200) | 500 to 5000 | ** (The symbol “**” indicates a value in the range of greater than 90 to 150) | – | – |
| N#CCC(=O)NC[C@H]1CN(S(=O)(=O)c2cccc(C(F)(F)F)c2)c2cc(-c3cccc(C(F)(F)F)n3)ccc2O1 [Compound 30BH, (S)-2-cyano-N-((4-((3-(trifluoromethyl)phenyl)-sulfonyl)-6-(6-(trifluoro-methyl)pyridin-2-yl)-3,4-dihydro-2H-benzo[b][1,4]-oxazin-2-yl)methyl)acetamide] | < 500 | *** (The symbol “***” indicates a value in the range of greater than 150 to 200) | 500 to 5000 | ** (The symbol “**” indicates a value in the range of greater than 90 to 150) | – | – |
| CC(C)(CO)C(=O)NC[C@H]1CN(S(=O)(=O)c2cccc(C(F)(F)F)c2)c2cc(-c3cccc(C(F)(F)F)n3)ccc2O1 [Compound 30BI, (S)-3-hydroxy-2,2-dimethyl-N-((4-((3-(trifluoromethyl)-phenyl)sulfonyl)-6-(6-(trifluoromethyl)pyridin-2-yl)-3,4-dihydro-2H-benzo[b][1,4]-oxazin-2-yl)methyl)-propanamide] | < 500 | *** (The symbol “***” indicates a value in the range of greater than 150 to 200) | 500 to 5000 | * (The symbol “*” indicates a value in the range of 25 to 90) | – | – |
| Cn1cc(C(=O)NC[C@H]2CN(S(=O)(=O)c3cccc(C(F)(F)F)c3)c3cc(-c4cccc(C(F)(F)F)n4)ccc3O2)c(C(F)(F)F)n1 [Compound 30BN, (S)-1-methyl-3-(trifluoro-methyl)-N-((4-((3-(trifluoro-methyl)phenyl)sulfonyl)-6-(6-(trifluoromethyl)pyridin-2-yl)-3,4-dihydro-2H-benzo[b][1,4]-oxazin-2-yl)methyl)-1H-pyrazole-4-carboxamide] | 500 to 5000 | *** (The symbol “***” indicates a value in the range of greater than 150 to 200) | – | – | > 10000 | * (The symbol “*” indicates a value in the range of 25 to 90) |
| CC(C)(C(=O)NC[C@H]1CN(S(=O)(=O)c2cccc(C(F)(F)F)c2)c2cc(-c3cccc(C(F)(F)F)n3)ccc2O1)C(F)(F)F [Compound 30BY, (S)-3,3,3-trifluoro-2,2-dimethyl-N-((4-((3-(trifluoromethyl)-phenyl)sulfonyl)-6-(6-(trifluoro-methyl)pyridin-2-yl)-3,4-dihydro-2H-benzo[b][1,4]-oxazin-2-yl)methyl)propanamide] | 500 to 5000 | *** (The symbol “***” indicates a value in the range of greater than 150 to 200) | – | – | 500 to 5000 | * (The symbol “*” indicates a value in the range of 25 to 90) |
| CC(C)(F)C(=O)NC[C@H]1CN(S(=O)(=O)c2cccc(C(F)(F)F)c2)c2cc(-c3cccc(F)c3Cl)ccc2O1 [Compound 30BZ, (S)-N-((6-(2-chloro-3-fluoro-phenyl)-4-((3-(trifluoromethyl)-phenyl)sulfonyl)-3,4-dihydro-2H-benzo[b][1,4]oxazin-2-yl)methyl)-2-fluoro-2-methylpropanamide] | < 500 | **** (The symbol “****” indicates a value greater than 200) | – | – | < 500 | * (The symbol “*” indicates a value in the range of 25 to 90) |
| CC(C)(O)C(=O)NCC[C@H]1CN(S(=O)(=O)c2cccc(C(F)(F)F)c2)c2cc(-c3cncc(C(F)(F)F)c3)ccc2O1 [Compound 30C, (S)-2-hydroxy-2-methyl-N-(2-(4-((3-(trifluoromethyl)-phenyl)sulfonyl)-6-(5-(trifluoromethyl)pyridin-3-yl)-3,4-dihydro-2H-benzo[b][1,4]oxazin-2-yl)ethyl)propanamide] | < 500 | **** (The symbol “****” indicates a value greater than 200) | < 500 | * (The symbol “*” indicates a value in the range of 25 to 90) | – | – |
